Patent US20240352309A1, “FLUORESCENT DYE, AND PREPARATION METHOD THEREFOR AND USE THEREOF” (FLUORESCENCE DIAGNOSIS (SHANGHAI) BIOTECH COMPANY LTD., priority 2021, published 2024)

Experiments:
[1] = Background fluorescence in PBS (Test Example 4); type: physicochemical; details: 1×10^−5 M, relative to contrast dyes of the same group (dye48, dye49, dye50, dye47)
Method: The dye1 and dye48; dye22 and dye49; dye40 and dye50; dye9, dye10 and dye47 were added to PBS to prepare a solution with a final concentration of 1×10^−5 M, corresponding maximum excitation wavelengths were used for exciting the dyes so that their fluorescence intensities in PBS could be detected, and normalization was performed with the strongest fluorescence intensity in each group of samples as 100, as shown respectively in FIGS. 21, 22, 23 and 24.

[2] = tested on: RNA aptamer in stable cell line (293T/17); experiment: Confocal imaging of cells expressing RNA aptamer (Test Example 5); type: cell-based; details: 2 uM dye, 10 min incubation, confocal microscopy; cells not expressing aptamers do not fluoresce
Method: Stable cell line (293T/17) continuously expressing RNA aptamer ([…]) and control cells (293T/17) were used, and cell culture media of dye1, dye12, dye25, and dye41 with a final concentration of 2 uM substituted original cell culture media after the cell line and control cells grew to a cell confluence of 90% under the conventional mammalian cell culture condition (37° C., 5% carbon dioxide, 100% relative humidity), and were incubated for 10 min (37° C., 5% carbon dioxide, 100% relative humidity).

[3] = Fluorescence emission in glycerol and methanol (Test Example 1); type: physicochemical; details: for Fluorescence intensity ratio in glycerol and methanol: 1×10^−5 M in glycerol vs methanol, maximum excitation wavelength; for Emission wavelength: 1×10^−5 M, excited at maximum excitation wavelength of each dye
Method: The fluorescent dye (molecular rotors) prepared in Examples dye1-dye42 were dissolved in DMSO each to prepare a mother solution with a concentration of 1×10^−2 M, and each mother solution was added to glycerol and methanol respectively and was mixed well, and a solution with a final concentration of 1×10^−5 M was prepared.

[4] = tested on: RNA aptamer in stable cell line (293T/17); experiment: Flow detection of cells expressing RNA aptamer (Test Example 6); type: cell-based; details: 1 μM dye in PBS, 5 minutes
[5] = Emission spectra in glycerol, wavelength adjustment (Test Example 3); type: physicochemical; details: 1×10^−5 M, dye6 vs dye5, oxo-carbonyl turned into thiocarbonyl
Method: The dye5, dye6, dye11, dye12, dye13, dye14, dye39 and dye42 were added into glycerol to prepare a solution with a final concentration of 1×10^−5 M, fluorescent dyes were excited with corresponding maximum excitation wavelength so as to obtain the emission spectra, and some of the emission spectra were normalized.

[6] = Fluorescence in solvents with different polarities (Test Example 2); type: physicochemical; details: methylbenzene, ethyl acetate, methyl alcohol, acetonitrile, dimethyl sulfoxide
[7] = Fluorescence emission in glycerol-diethanol mixed solutions of different viscosities (Test Example 2); type: physicochemical; details: glycerol-diethanol mixed solution, 16.4-946.0 cp, 1×10^−5 M
Text: The dye7, dye9, dye12, dye25, dye40 were respectively added into a glycerol-diethanol mixed solution with the following viscosities: 16.4 cp (the volume ratio of glycerol was 0%), 29.8 cp (the volume ratio of glycerol was 20%), 64.5 cp (the volume ratio of glycerol was 40%), 143.5 cp (the volume ratio of glycerol was 60%), 377.0 cp (the volume ratio of glycerol was 80%), 946.0 cp (the volume ratio of glycerol was 100%), so as to prepare solutions with a final concentration of 1×10^−5 M; the fluorescence emission spectra under different viscosity conditions were shown as FIGS. 1, 3, 5, 7 and 9, wherein the emission wavelengths of the above-mentioned molecular rotors were respectively 620 nm, 576 nm, 650 nm, 670 nm and 720 nm. According to the results, fluorescence intensities of fluorescent dyes of the same concentration increase with ambient viscosity.

Structure (SMILES)	Fluorescence intensity ratio in glycerol and methanol [3]	Emission wavelength [3]	also measured
CN1C(=O)S/C(=C\c2ccc(N(C)CCO)s2)C1=O [dye1]	695	520 nm	background fluorescence in PBS [1]: lower background fluorescence; fluorescence of cells expressing aptamers [2]: bright fluorescence
CCN1C(=O)/C(=C/c2ncc(N(C)CCO)s2)SC1=S [dye2]	587	532 nm	
CN1CCOc2cc(/C=C3\NC(=S)NC3=O)ccc21 [dye3]	637	580 nm	dye background fluorescence before binding [4]: very low; fluorescence after binding to RNA aptamer in cells [4]: notably activated
CN1CCOc2cc(/C=C3\SC(=O)NC3=S)ccc21 [dye4]	984	620 nm	
CN1CCSc2cc(/C=C3\SC(=O)NC3=O)ccc21 [dye5]	1021	550 nm	
CN1CCSc2cc(/C=C3\SC(=S)NC3=O)ccc21 [dye6]	658	608 nm	increase of emission wavelength [5]: about 50 nm
CC1=CC(C)(C)N(C)c2ccc(/C=C3\SC(=O)NC3=S)cc21 [dye7]	754	620 nm	fluorescence intensity in solvents with different polarities [6]: weak; Emission wavelength [7]: 620 nm; viscosity response of fluorescence intensity [7]: sensitive to viscosity
O=C1NC(=S)N/C1=C\c1cc2c3c(c1)CCCN3CCC2 [dye9]	951	586 nm	fluorescence intensity in solvents with different polarities [6]: weak; background fluorescence in PBS [1]: lower background fluorescence; Emission wavelength [7]: 576 nm; viscosity response of fluorescence intensity [7]: sensitive to viscosity
S=C1NC(=S)/C(=C/c2cc3c4c(c2)CCCN4CCC3)S1 [dye10]	638	675 nm	background fluorescence in PBS [1]: lower background fluorescence
CN(CCO)c1cc2sc(/C=C3\SC(=O)NC3=O)cc2s1 [dye11]	954	590 nm	
CN(CCO)c1cc2sc(/C=C3\SC(=S)NC3=O)cc2s1 [dye12]	654	650 nm	fluorescence intensity in solvents with different polarities [6]: weak; fluorescence of cells expressing aptamers [2]: bright fluorescence; Emission wavelength [7]: 650 nm; viscosity response of fluorescence intensity [7]: sensitive to viscosity
CN(CCO)c1cc2sc(/C=C3\SC(=S)NC3=S)cc2s1 [dye14]	852	720 nm	
CN1C(=O)/C(=C/c2cc3sc(N(C)CCO)cc3s2)SC1=S [dye15]	891	655 nm	
CN1C(=S)S/C(=C\c2cc3sc(N(C)CCO)cc3s2)C1=S [dye16]	982	730 nm	
CN(CCO)c1cc2sc(/C=C3\NC(=S)N(CCC(=O)O)C3=O)cc2s1 [dye17]	993	630 nm	
CN1C(=O)/C(=C/c2cc3sc(N(C)CCOCCOCCO)cc3s2)SC1=S [dye18]	1026	588 nm	
CCCCCCCCCCN(C)c1cc2sc(/C=C3\SC(=S)N(C)C3=O)cc2s1 [dye19]	1098	650 nm	
O=C1NC(=S)S/C1=C\c1cc2sc(N(CCO)CCO)cc2s1 [dye20]	1133	650 nm	
O=C1NC(=S)N/C1=C\c1cc2sc(N(CCO)CCO)cc2s1 [dye21]	1098	635 nm	dye background fluorescence before binding [4]: very low; fluorescence after binding to RNA aptamer in cells [4]: notably activated
CN(CCO)c1ccc2cc(/C=C3\SC(=S)NC3=O)sc2c1 [dye22]	687	605 nm	background fluorescence in PBS [1]: lower background fluorescence
CN(CCNS(C)(=O)=O)c1ccc2cc(/C=C3\NC(=S)NC3=O)sc2c1 [dye23]	985	640 nm	

Structure (SMILES)	Fluorescence intensity ratio in glycerol and methanol [3]	Emission wavelength [3]	also measured
CN(C)CCN(C)c1ccc2cc(/C=C3\SC(=O)NC3=O)sc2c1 [dye24]	465	750 nm	
CN1C(=O)/C(=C/c2ccc3cc(N(C)CCCl)ccc3n2)SC1=S [dye26]	871	660 nm	
CN(CCO)c1ccc2nc(/C=C3\SC(=S)NC3=O)sc2c1 [dye27]	765	590 nm	
CCN1C(=O)S/C(=C\c2cc3ccc(N(C)CCO)cc3o2)C1=O [dye28]	682	690 nm	
CN1C(=O)/C(=C/c2nc3ccc(N(C)CCO)cc3o2)NC1=S [dye29]	721	650 nm	
CN(C)c1ccc2cc(/C=C3\SC(=S)N(N)C3=O)sc2c1 [dye30]	761	640 nm	
CN(C)c1ccc2cc(/C=C3\SC(=S)N(CCC(=O)O)C3=S)oc2c1 [dye31]	980	685 nm	
CN(C)c1ccc2cc(/C=C3\NC(=S)NC3=S)oc2c1 [dye32]	687	654 nm	
CN(C)c1ccc2nc(/C=C3\SC(=N)NC3=N)oc2c1 [dye33]	461	622 nm	
CN(CCO)c1ccc2c(c1)C(C)(C)c1cc(/C=C3\SC(=O)NC3=O)ccc1-2 [dye34]	630	680 nm	dye background fluorescence before binding [4]: very low; fluorescence after binding to RNA aptamer in cells [4]: notably activated
CN(CCO)c1ccc2c(c1)C(C)(C)c1cc(/C=C3\SC(=S)NC3=O)ccc1-2 [dye35]	530	740 nm	
CN(CCO)c1ccc2c(c1)sc1cc(/C=C3\SC(=S)NC3=O)sc12 [dye36]	510	735 nm	
CN(CCO)c1cc2c(s1)-c1sc(/C=C3\OC(=N)NC3=N)cc1[Si]2(C)C [dye37]	620	720 nm	
CN(CCO)c1cc2cc3sc(/C=C4\OC(=S)NC4=S)cc3cc2s1 [dye38]	741	730 nm	
CN(CCO)c1ccc2c(c1)C(C)(C)c1cc(/C=C3\SC(=S)NC3=S)sc1-2 [dye39]	627	820 nm	
CN1C(=S)N/C(=C\c2cc3c(s2)-c2ccc(N(C)CCO)cc2C3(C)C)C1=S [dye40]	695	730 nm	fluorescence intensity in solvents with different polarities [6]: weak; background fluorescence in PBS [1]: lower background fluorescence; Emission wavelength [7]: 720 nm; viscosity response of fluorescence intensity [7]: sensitive to viscosity
CN(CCO)c1cc2c(s1)-c1sc(/C=C3\NC(=S)NC3=O)cc1C2(C)C [dye41]	594	735 nm	fluorescence of cells expressing aptamers [2]: bright fluorescence
CN(CCO)c1cc2c(s1)-c1sc(/C=C3\SC(=S)NC3=S)cc1C2(C)C [dye42]	364	800 nm	
CN(CCO)c1ccc2c(c1)C(C)(C)C(/C=C1\SC(=O)NC1=O)=N2 [dye44]	465	680 nm	
CN(CCO)c1ccc2c(c1)C(C)(C)C(/C=C1\SC(=S)NC1=O)=N2 [dye45]	562	717 nm	
CN(C)c1ccc(C2=C(C#N)C(=C(C#N)C#N)OC2(C)C)cc1 [dye50, reference compound]			dye background fluorescence before binding [4]: obvious
